Measured values taken from patent US5847092A (Zambon Group S.p.A., priority 1994, dated 1998).
Converted amounts (≈) assume the structure as drawn. Read-outs that look alike come from different tables or passages of the source.

Assays:
[1] = test system: Streptococcus pyogenes C 203; test: In vivo antibacterial activity, experimental pulmonary infection in mouse; conditions: Streptococcus pyogenes, C203, ip, 240 h, intraperitoneal single dose, read-out: average protecting dose PD50
Experimental: The in vivo antibacterial activity of the compounds of formula (I), expressed as average protecting dose PD50 (mg/Kg), was evaluated by means of experimental pulmonary infection induced in mouse by Streptococcus pyogenes (example 23).
b) In vivo antibacterial activity
The therapeutical effectiveness, expressed as average protecting dose (PD50), of the considered compounds of formula (I) was evaluated by experimental pulmonary infection induced in mouse by Streptococcus pyogenesC 203.
Charles River albin mice (strain CD 1), of body weight comprised between 23-35 g, stabulated in groups of 6 for cage and normo-feeded with standard diet and water ad libitum were used. A suspension of S. pyogenes C 203 (corresponding about to 10^8 UFC) in tryptose broth (0.05 ml) was intranasally administered to each mouse anesthesized with a mixture of ethyl ether and chloroform.
The compounds under examination were intraperitoneally administered as a single dose, in 0.2% Tween suspension, 24 hours before or 1 hour after the infection.
Mice mortality observation was prolonged up to 10 days from the infection.
PD50 calculation, expressed as (mg/Kg), was carried out through the analysis of probit.
In vivo antibacterial activity, expressed as average protecting dose PD50 (mg/Kg), 24 hours before and 1 hour after the experimental pulmonary infection induced in mouse by Streptococcus pyogenes C 203, of the compounds 4, 10, 16-19, 21, 23, 26-27, 29-30, 33-35 and 38 and of the reference compounds Roxithromycin and Clarithromycin.

[2] = test system: Staphylococcus aureus PV 14; test: In vitro antibacterial activity, MIC, broth microdilution; type: cell-based; conditions: Staphylococcus aureus, PV14; S. aureus PV 14; MHB; 37° C., 18 hours; read-out: minimum inhibiting concentration MIC
Experimental: (§1) a) In vitro antibacterial activity The determination of the minimum inhibiting concentrations (MIC), with respect to Gram-positive and Gram-negative bacteria was carried out through the micromethod of gradual broth dilution in double series [National Committee for Clinical Laboratory Standards, 1990; Methods for dilution antimicrobial susceptibility tests for bacteria that grow aerobically; Approved standards […], Villanova, Pa.], by using Mueller Hinton Broth (MHB) as a culture medium. In the case of […] bacteria, horse serum at 5% (Streptococcus pneumoniae and Streptococcus pyogenes) was added to the medium. Roxithromycin and Clarithromycin [The Merck Index, XI Ed., No. 8253 and 2340, respectively] were used as reference macrolides. MIC, expressed as (μg/ml), were determined after incubation of the microplates at 37° C. for 18 hours, evaluating the lowest antibiotic concentration enabling the inhibition of bacterial development.

[3] = test system: Klebsiella pneumoniae ZC 2; test: as above; type: cell-based; conditions: Klebsiella pneumoniae, ZC2; K. pneumoniae ZC 2; MHB; 37° C., 18 hours; read-out: minimum inhibiting concentration MIC
Experimental: as §1

[4] = test system: Streptococcus pyogenes A 26; test: as above; type: cell-based; conditions: Streptococcus pyogenes, A26; S. pyogenes A 26; MHB + 5% horse serum; 37° C., 18 hours; read-out: minimum inhibiting concentration MIC
Experimental: as §1

[5] = test system: Streptococcus pneumoniae BS 3; test: as above; type: cell-based; conditions: Streptococcus pneumoniae, BS3; S. pneumoniae BS 3; MHB + 5% horse serum; 37° C., 18 hours; read-out: minimum inhibiting concentration MIC
Experimental: as §1

[6] = test system: Streptococcus pyogenes C 203; test: as above; type: cell-based; conditions: Streptococcus pyogenes, C203; S. pyogenes C 203; MHB + 5% horse serum; 37° C., 18 hours; read-out: minimum inhibiting concentration MIC
Experimental: as §1

[7] = test system: Enterococcus faecalis ATCC 29212; test: as above; type: cell-based; conditions: Enterococcus faecalis, ATCC29212; E. faecalis ATCC 29212; MHB; 37° C., 18 hours; read-out: minimum inhibiting concentration MIC
Experimental: as §1

[8] = test system: Escherichia coli ATCC 25922; test: as above; type: cell-based; conditions: Escherichia coli, ATCC25922; E. coli ATCC 25922; MHB; 37° C., 18 hours; read-out: minimum inhibiting concentration MIC
Experimental: as §1

[9] = test system: Streptococcus pneumoniae BS 4; test: as above; type: cell-based; conditions: Streptococcus pneumoniae, BS4; S. pneumoniae BS 4; MHB + 5% horse serum; 37° C., 18 hours; read-out: minimum inhibiting concentration MIC
Experimental: as §1

With `CC[C@H]1OC(=O)[C@H](C)[C@@H](O[C@H]2C[C@@](C)(OC)[C@@H](O)[C@H](C)O2)[C@H](C)[C@@H](O[C@@H]2O[C@H](C)C[C@H](N(C)C)[C@H]2O)[C@](C)(O)C[C@@H](C)/C(=N\OCCNCCCCCCNCc2ccc(C(F)(F)F)cc2)[C@H](C)[C@@H](O)[C@]1(C)O` [Compound 23, Erythromycin A (E)-9-[0-[2-[6-[(4-trifluoromethylphenyl)methylamino]hexylamino]ethyl]oxime]] the ED50 ([1]; 1 hour after infection) was 1.46 mg/kg, the MIC [2] was 1 µg/mL (≈ 0.953 µM) and the MIC [3] was 4 µg/mL (≈ 3.81 µM). For the same compound, the MIC [4] was 0.0156 µg/mL, the MIC [5] was 0.0156 µg/mL and the MIC [6] was 0.0156 µg/mL. For the same compound, the MIC [7] was 2 µg/mL (≈ 1.91 µM), the MIC [8] was 1 µg/mL (≈ 0.953 µM) and the MIC [9] was 0.0078 µg/mL.

With `CCCCOc1ccc(CNCCCCCCNCCO/N=C2\[C@H](C)C[C@@](C)(O)[C@H](O[C@@H]3O[C@H](C)C[C@H](N(C)C)[C@H]3O)[C@@H](C)[C@H](O[C@H]3C[C@@](C)(OC)[C@@H](O)[C@H](C)O3)[C@@H](C)C(=O)O[C@H](CC)[C@@](C)(O)[C@H](O)[C@H]2C)cc1` [Compound 26, Erythromycin A (E)-9-[0-[2-[6-[(4-n.butoxyphenyl)methylamino]hexylamino]ethyl]oxime]] the ED50 ([1]; 1 hour after infection) was 6.11 mg/kg, the ED50 ([1]; 24 hours before infection) was 6.11 mg/kg and the MIC [2] was 0.25 µg/mL (≈ 0.237 µM). The MIC [3] was 2 µg/mL (≈ 1.9 µM), the MIC [4] was 0.0312 µg/mL and the MIC [5] was 0.0156 µg/mL. For the same compound, the MIC [6] was 0.0078 µg/mL, the MIC [7] was 1 µg/mL (≈ 0.949 µM) and the MIC [8] was 1 µg/mL (≈ 0.949 µM). The MIC [9] was 0.0156 µg/mL.

Work on `CC[C@H]1OC(=O)[C@H](C)[C@@H](O[C@H]2C[C@@](C)(OC)[C@@H](O)[C@H](C)O2)[C@H](C)[C@@H](O[C@@H]2O[C@H](C)C[C@H](N(C)C)[C@H]2O)[C@](C)(O)C[C@@H](C)/C(=N\OCCNCCCCCCNCc2cccc(Oc3ccccc3)c2)[C@H](C)[C@@H](O)[C@]1(C)O` [Compound 27, Erythromycin A (E)-9-[0-[2-[6-[(3-phenoxyphenyl)methylamino]hexylamino]ethyl]oxime]] yielded an ED50 ([1]; 1 hour after infection) of 15.6 mg/kg, an ED50 ([1]; 24 hours before infection) of 15.6 mg/kg and an MIC [2] of 0.5 µg/mL (≈ 0.466 µM). It also gave an MIC [3] of 2 µg/mL (≈ 1.86 µM), an MIC [4] of 0.0156 µg/mL and an MIC [5] of 0.0078 µg/mL. For the same compound, the MIC [6] was 0.0078 µg/mL, the MIC [7] was 1 µg/mL (≈ 0.932 µM) and the MIC [8] was 1 µg/mL (≈ 0.932 µM). For the same compound, the MIC [9] was 0.0078 µg/mL.

For `CC[C@H]1OC(=O)[C@H](C)[C@@H](O[C@H]2C[C@@](C)(OC)[C@@H](O)[C@H](C)O2)[C@H](C)[C@@H](O[C@@H]2O[C@H](C)C[C@H](N(C)C)[C@H]2O)[C@](C)(O)C[C@@H](C)/C(=N\OCCNCCCCCCNCc2ccc(Oc3ccccc3)cc2)[C@H](C)[C@@H](O)[C@]1(C)O` [Compound 29, Erythromycin A (E)-9-[0-[2-[6-[(4-phenoxyphenyl)methylamino]hexylamino]ethyl]oxime]], the ED50 ([1]; 1 hour after infection) was 7.65 mg/kg, the ED50 ([1]; 24 hours before infection) was 6.1 mg/kg and the MIC [2] was 0.5 µg/mL (≈ 0.466 µM). For the same compound, the MIC [3] was 2 µg/mL (≈ 1.86 µM), the MIC [4] was 0.0312 µg/mL and the MIC [5] was 0.0078 µg/mL. It also gave an MIC [6] of 0.0039 µg/mL, an MIC [7] of 1 µg/mL (≈ 0.932 µM) and an MIC [8] of 1 µg/mL (≈ 0.932 µM). The MIC [9] was 0.0156 µg/mL.

With `CC[C@H]1OC(=O)[C@H](C)[C@@H](O[C@H]2C[C@@](C)(OC)[C@@H](O)[C@H](C)O2)[C@H](C)[C@@H](O[C@@H]2O[C@H](C)C[C@H](N(C)C)[C@H]2O)[C@](C)(O)C[C@@H](C)/C(=N\OCCNCCCCCCNCc2ccc(-c3ccccc3)cc2)[C@H](C)[C@@H](O)[C@]1(C)O` [Compound 30, Erythromycin A (E)-9-[0-[2-[6-[(biphenyl-4-yl)methylamino]hexylamino]ethyl]oxime]] the ED50 ([1]; 1 hour after infection) was 19.3 mg/kg, the ED50 ([1]; 24 hours before infection) was 19.3 mg/kg and the MIC [2] was 0.5 µg/mL (≈ 0.473 µM). The MIC [3] was 2 µg/mL (≈ 1.89 µM), the MIC [4] was 0.0156 µg/mL and the MIC [5] was 0.0156 µg/mL. For the same compound, the MIC [6] was 0.0078 µg/mL, the MIC [7] was 1 µg/mL (≈ 0.946 µM) and the MIC [8] was 1 µg/mL (≈ 0.946 µM). The MIC [9] was 0.0156 µg/mL.
